According to US5739123A, “Phosphinic acid derivatives with metallopeptidase inhibitory activity” (Zambon Group S.p.A., priority 1994, dated 1998):
Structures can show the parent of a compound that is named as a salt.

Key:
ACE = molecular target: T1, ACE (Oryctolagus cuniculus, UniProt P12822); experiment: ACE-inhibitory activity, in vitro (FAPGG substrate); type: biochemical; conditions: ACE purified from lung rabbit; FAPGG 0.8 mM; 37° C.; 340 nm, 5 minutes; tested as lithium or sodium salts
T1 construct: purchased SIGMA; host or cells: rabbit lung (purified)
T1 sequence (P12822 34-1310): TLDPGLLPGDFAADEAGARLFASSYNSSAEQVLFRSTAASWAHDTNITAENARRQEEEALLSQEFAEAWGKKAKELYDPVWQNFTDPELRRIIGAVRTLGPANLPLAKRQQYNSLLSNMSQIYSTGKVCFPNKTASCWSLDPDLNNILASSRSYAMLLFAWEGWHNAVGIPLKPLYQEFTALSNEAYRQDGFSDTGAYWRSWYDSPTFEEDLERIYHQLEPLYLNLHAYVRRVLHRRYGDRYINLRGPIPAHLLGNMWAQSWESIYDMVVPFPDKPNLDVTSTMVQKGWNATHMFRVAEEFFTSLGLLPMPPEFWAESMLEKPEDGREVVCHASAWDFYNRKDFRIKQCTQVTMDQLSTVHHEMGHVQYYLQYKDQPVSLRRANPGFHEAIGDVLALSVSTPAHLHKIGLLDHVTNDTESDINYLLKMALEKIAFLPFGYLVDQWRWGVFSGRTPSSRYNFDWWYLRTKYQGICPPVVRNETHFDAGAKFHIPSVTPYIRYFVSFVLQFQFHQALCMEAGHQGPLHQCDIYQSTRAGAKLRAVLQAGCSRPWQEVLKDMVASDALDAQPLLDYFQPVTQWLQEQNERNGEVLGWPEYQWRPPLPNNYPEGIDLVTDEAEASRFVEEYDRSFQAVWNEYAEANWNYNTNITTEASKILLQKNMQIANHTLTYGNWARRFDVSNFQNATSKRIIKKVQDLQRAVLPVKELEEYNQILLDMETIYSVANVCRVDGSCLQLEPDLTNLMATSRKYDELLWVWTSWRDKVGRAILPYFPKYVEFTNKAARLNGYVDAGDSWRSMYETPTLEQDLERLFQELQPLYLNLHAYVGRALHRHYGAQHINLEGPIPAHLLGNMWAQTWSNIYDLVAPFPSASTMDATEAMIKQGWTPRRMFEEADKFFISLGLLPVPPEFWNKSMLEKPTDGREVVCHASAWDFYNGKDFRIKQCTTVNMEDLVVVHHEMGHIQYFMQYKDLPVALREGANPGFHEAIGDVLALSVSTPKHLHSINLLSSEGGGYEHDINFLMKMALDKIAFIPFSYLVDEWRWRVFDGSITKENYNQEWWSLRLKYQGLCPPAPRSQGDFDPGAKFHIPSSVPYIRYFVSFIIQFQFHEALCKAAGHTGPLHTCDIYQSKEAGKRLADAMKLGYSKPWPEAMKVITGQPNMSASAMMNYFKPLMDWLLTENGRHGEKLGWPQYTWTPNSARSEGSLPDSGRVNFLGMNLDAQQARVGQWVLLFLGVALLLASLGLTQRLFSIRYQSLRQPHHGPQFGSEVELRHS
Method: The ACE-inhibitory activity was evaluated according to the method reported in the literature by B. Holmquist et al., in Analytical Biochemistry 95, 540-548 (1979).
[…] of ACE (250 mU/ml purified by lung rabbit, EC 3.4.15.1 SIGMA) with 50 μl of the compound of formula I were preincubated in thermostated cuvettes at 37° C.
The reaction was started by adding furylacryloylphenylalanylglycylglycine 0.8 mM (FAPGG-SIGMA).
Contemporaneously, by using a Beckman DU-50 spectrophotometer provided with a program for calculating delta A/minutes and regression coefficients of the enzyme kinetics curves, the absorbance at 340 nm was recorded in continuo for 5 minutes.
The percentage of the enzyme inhibition in the preparations treated with the compounds of formula I with respect to the untreated preparations was expressed as IC50 value (nM).
(§1) The compounds of formula I were tested in the form of lithium or sodium salts.

NEP = molecular target: T2, NEP (Rattus norvegicus, UniProt P07861); experiment: NEP-inhibitory activity, in vitro (kidney cortex membranes, [3H][Leu5]-enkephaline substrate); type: biochemical, male Sprague-Dawley rats; conditions: rat kidney cortex membranes 5 μg/ml of proteins; [3H][Leu5]-enkephaline 15 nM; pH 7.4; 20 minutes at 30° C.; tested as lithium or sodium salts
T2 construct: Membranes from kidney cortex were prepared; from tissue; host or cells: kidney cortex membranes of male Sprague-Dawley rats
T2 sequence (P07861 1-750): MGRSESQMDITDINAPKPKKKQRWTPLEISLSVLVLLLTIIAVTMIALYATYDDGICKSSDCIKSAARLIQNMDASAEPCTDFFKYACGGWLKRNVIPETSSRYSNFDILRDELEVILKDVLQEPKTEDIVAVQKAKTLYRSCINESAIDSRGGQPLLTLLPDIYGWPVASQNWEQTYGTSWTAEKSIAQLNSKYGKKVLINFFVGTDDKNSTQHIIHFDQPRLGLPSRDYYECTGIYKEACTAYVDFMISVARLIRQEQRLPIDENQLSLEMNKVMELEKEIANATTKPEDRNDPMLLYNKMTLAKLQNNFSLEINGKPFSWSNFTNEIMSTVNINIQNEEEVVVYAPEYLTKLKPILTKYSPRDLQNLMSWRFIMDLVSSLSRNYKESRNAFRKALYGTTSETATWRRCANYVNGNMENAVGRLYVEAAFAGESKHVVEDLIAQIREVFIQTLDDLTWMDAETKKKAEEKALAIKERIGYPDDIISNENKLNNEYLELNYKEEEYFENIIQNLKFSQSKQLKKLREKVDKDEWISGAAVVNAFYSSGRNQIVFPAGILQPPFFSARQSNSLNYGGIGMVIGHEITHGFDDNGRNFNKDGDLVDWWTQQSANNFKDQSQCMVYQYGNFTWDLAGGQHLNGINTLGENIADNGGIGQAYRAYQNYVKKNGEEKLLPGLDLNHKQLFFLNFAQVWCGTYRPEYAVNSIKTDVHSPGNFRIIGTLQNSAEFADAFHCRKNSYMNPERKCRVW
Method: The NEP-inhibitory activity was evaluated according to the method reported in the literature by C. Llorens et al., in Eur. J. Pharmacol., 69, (1981), 113-116.
Membranes from kidney cortex were prepared according to the following procedure.
By working at 0°-4° C., kidneys were removed from male Sprague-Dawley rats weighing approximately 300 g.
Cortex was carefully dissected, finely minced and suspended in a homogenization buffer (10 mM sodium phosphate pH 7.4 containing 1 mM MgCl2, 30 mM NaCl, 0.02% NAN3) 1:15 weight/volume.
The tissue was then homogenized for 30 seconds using an Ultra-Turrax homogenizer.
Approximately 10 ml of homogenate were layered over 10 ml of sucrose (41% weight/volume) and centrifuged at 31200 rpm for 30 minutes at 4° C. in a fixed angle rotor.
The membranes were collected from the buffer/sucrose interface, washed twice with 50 mM TRIS/HCl buffer (pH 7.4) and resuspended into the same buffer for storage.
The membranes were stored in small aliquots at -80° C. until use. The NEP-inhibitory activity was evaluated by using the following method.
Aliquots of the membrane suspension prepared as above described (concentration 5 μg/ml of proteins) were preincubated in the presence of an aminopeptidase inhibitor (Bestatin--1 mM) for 10 minutes at 30° C.
[^3 H][Leu^5 ]-enkephaline (15 nM) and buffer TRIS/HCl pH 7.4 (50 mM) were added in order to obtain a final volume of 100 μl. Incubation (20 minutes at 30° C.) was stopped by adding HCl 0.1M (100 μl).
The formation of the metabolite [^3 H]Tyr-Gly-Gly was quantified by chromatography on polystyrene columns (Porapak Q). The percentage of inhibition of the metabolite formation in the membrane preparations treated with the compounds of formula I, in comparison to the untreated membrane preparations, was expressed as IC50 value (nM).
as §1

thermolysin = conditions: J. Am. Chem. Soc. 1991, 113, 297-307; cited from earlier work

| SMILES | IC50 (ACE) [nM] | IC50 (NEP) [nM] | inhibitory activity towards thermolysin (in words) (thermolysin) |
| --- | --- | --- | --- |
| CC(C)CC(CP(=O)(O)CCCc1ccccc1)C(=O)N[C@@H](Cc1ccc(-c2ccccc2)cc1)C(=O)O (stereo partly drawn) [Compound 1, N-[3-[(3-phenylpropyl)(hydroxy)phosphinyl]-2-isobutyl-propionyl]-(1,1'-biphenyl-4-yl)-L-alanine dilithium salt] | 70 | 368 |  |
| CC(C)CC(CP(=O)(O)CNC(=O)OCc1ccccc1)C(=O)NC(Cc1ccccc1)C(=O)O (stereo not drawn) |  |  | endowed with inhibitory activity towards thermolysin |

Continued, in another order:

| IC50 (ACE) [nM] | IC50 (NEP) [nM] | SMILES | inhibitory activity towards thermolysin (in words) (thermolysin) |
| --- | --- | --- | --- |
| 183 | 30.1 | CC(C)CC(CP(=O)(O)CNC(=O)Cc1ccccc1)C(=O)N[C@@H](Cc1ccc(-c2ccccc2)cc1)C(=O)O (stereo partly drawn) [Compound 7, N-[3-[(phenylacetylaminomethyl)(hydroxy)phosphinyl]-2-isobutyl-propionyl]-(1,1'-biphenyl-4-yl)-L-alanine] |  |
| 24 | 220 | CC(C)CC(CP(=O)(O)CCCCc1ccccc1)C(=O)N[C@@H](Cc1ccc(-c2ccccc2)cc1)C(=O)O (stereo partly drawn) [Compound 2, N-[3-[(4-phenylbutyl)(hydroxy)phosphinyl]-2-isobutyl-propionyl]-(1,1'-biphenyl-4-yl)-L-alanine disodium salt] |  |
| 4.6 | 7.7 | CC(C)CC(CP(=O)(O)CNC(=O)c1ccccc1)C(=O)N[C@@H](Cc1ccc(-c2ccccc2)cc1)C(=O)O (stereo partly drawn) [Compound 6, N-[3-[(benzoylaminomethyl)(hydroxy)phosphinyl]-2-isobutyl-propionyl]-(1,1'-biphenyl-4-yl)-L-alanine] |  |
